Results from patent US10328062B2, “Biomarkers and use of MET inhibitor for treatment of cancer” (AMGEN, INC., priority 2014, dated 2019).
Where two headings read alike, the source gives them in different places.

Experiments:
MKN-45 = test: 72 hour cancer cell line viability assay (CellTiter-Glo); type: cell-based; conditions: Homo sapiens
Procedure: (§1) Human cancer cell lines were purchased from ATCC, JCRB, Sigma Aldrich or DSMZ. All cell lines were propagated in growth media per the suppliers' recommendation and maintained in 5% CO2 and 37° C.
(§2) Cancer cell line viability assays were carried out using the CellTiter-Glo Luminescent Cell Viability Assay from Promega (Madison, Wis.). Optimal cell seeding densities were determined using time lapse imaging to maximize signal window and ensure cells were not contact growth inhibited at the 72 hour time point. Cells were seeded in 96 well plates in complete growth media and allowed to adhere to the bottom of the plate by incubation at 37° C. and 5% CO2 overnight. […] Plates were incubated at 37° C. and 5% CO2 for 72 hours. Treated plates were then allowed to equilibrate to room temperature along with, CellTiter-Glo substrate and buffer solution prior to use in the viability assay. CellTiter-Glo substrate vials were reconstituted in 10 mL of buffer solution and added to assay plates in 100 μL/well volumes. Plates were shaken for 2 minutes at 700 rotations per minute with an orbit diameter of 3 mm followed by room temperature incubation for 10 minutes. Plates were then read using an Envision plate reader on luminescent setting.
(§3) To calculate growth inhibition effects (0-200% scale), time zero vehicle treated wells (V0), were read at the time of compound addition for each cell line.
(§4) Threshold for high vs low MET copy number was set at aCGH log 2 ratio of 2.5. Focal nature of MET copy number increase was defined qualitatively using tiled aCGH results for chromosome 7.
(§5) Percent growth inhibition is reported on a 0-200% scale where 0% is equivalent to no effect (time 72 hour control), 100% is equivalent to stasis (time 0 hour control) and 200% is equivalent to complete cell death.

NCI-H1993 = test: as above; type: cell-based; conditions: Homo sapiens
Procedure: as §1, §2, §3, §4, §5

CAL-54 = test: as above; type: cell-based; conditions: Homo sapiens; CAL-54, Kidney; MET copy number Low, focal No; 72 hour viability
Procedure: as §1, §2, §4

OE33 = test: as above; type: cell-based; conditions: Homo sapiens; OE33, Esophagus; MET copy number High, focal Yes; 72 hour viability
Procedure: as §1, §2, §4

NCI-H2342 = test: as above; type: cell-based; conditions: Homo sapiens; NCI-H2342, NSCLC; MET copy number Low, focal No; 72 hour viability
Procedure: as §1, §2, §4

EBC-1 = test: as above; type: cell-based; conditions: Homo sapiens; EBC-1, NSCLC; MET copy number High, focal Yes; 72 hour viability
Procedure: as §1, §2, §4

G-361 = test: as above; type: cell-based; conditions: Homo sapiens; G-361, Melanoma; MET copy number Low, focal No; 72 hour viability
Procedure: as §1, §2, §4

NCI-H1573 = test: as above; type: cell-based; conditions: Homo sapiens
Procedure: as §1, §2, §4

NCI-H820 = test: as above; type: cell-based; conditions: Homo sapiens; NCI-H820, NSCLC; MET copy number Low, focal No; 72 hour viability
Procedure: as §1, §2, §4

NCI-H1648 = test: as above; type: cell-based; conditions: Homo sapiens; NCI-H1648, NSCLC; MET copy number Low, focal Yes; 72 hour viability
Procedure: as §1, §2, §4

C32 = test: as above; type: cell-based; conditions: Homo sapiens; C32, Melanoma; MET copy number Low, focal No; 72 hour viability
Procedure: as §1, §2, §4

HOP-92 = test: as above; type: cell-based; conditions: Homo sapiens; HOP-92, NSCLC; MET copy number Low, focal No; 72 hour viability
Procedure: as §1, §2, §4

AU-565 = test: as above; type: cell-based; conditions: Homo sapiens, AU565; AU-565, Breast; MET copy number Low, focal No; 72 hour viability
Procedure: as §1, §2, §4

NUGC-4 = test: as above; type: cell-based; conditions: Homo sapiens; NUGC-4, Gastric; MET copy number Low, focal Yes; 72 hour viability
Procedure: as §1, §2, §4

Alexander = test: as above; type: cell-based; conditions: Homo sapiens, Liver, MET copy number Low, focal No, 72 hour viability
Procedure: as §1, §2, §4

HCC1395 = test: as above; type: cell-based; conditions: Homo sapiens; HCC1395, breast; MET copy number Low, focal No; 72 hour viability
Procedure: as §1, §2, §4

Malme-3M = test: as above; type: cell-based; conditions: Homo sapiens, Melanoma, MET copy number Low, focal No, 72 hour viability
Procedure: as §1, §2, §4

Hs 746T = test: as above; type: cell-based; conditions: Homo sapiens, Hs746T, Gastric, MET copy number High, focal Yes, 72 hour viability
Procedure: as §1, §2, §4

SNU-5 = test: as above; type: cell-based, Human
Procedure: as §1, §2, §3, §4, §5

SNU-620 = test: as above; type: cell-based, Human
Procedure: as §1, §2, §3, §4, §5

[1] = system: panel of 20 cancer cell lines; test: 72 hour viability assays, sensitivity status over the panel; type: cell-based; conditions: Homo sapiens
Procedure: as §1
as §2, with “Plates were shaken for 2 minutes at 700 rotations per minute with an orbit diameter of 3 mm followed by room temperature incubation for 10 minutes.” left out
MET copy number for individual cell lines was determined by array comparative genomic hybridization (aCGH) and reported as log 2 ratio of cell line to pooled control DNA from 40 normal donors. […]

## COCCOc1cnc2ccn([C@H](C)c3nnc4c(F)cc(-c5cnn(C)c5)cn34)c(=O)c2c1 [Compound M, 6-{(1R)-1-[8-fluoro-6-(1-methyl-1H-pyrazol-4-yl)[1,2,4]triazolo[4,3-a]pyridin-3-yl]ethyl}-3-(2-methoxyethoxy)-1,6-naphthyridin-5(6H)-one]
MKN-45; MKN-45, Gastric, MET copy number High, focal Yes, 72 hour viability
  IC50: 9 nM
MKN-45; MKN-45, 72 hour, 0-200% scale, 100% = stasis, read-out: maximum effect, growth inhibition
  Emax: 100%
NCI-H1993; NCI-H1993, NSCLC, MET copy number High, focal Yes, 72 hour viability
  IC50: 17 nM
NCI-H1993; NCI-H1993, 72 hour, 0-200% scale, 100% = stasis, read-out: maximum effect, growth inhibition
  Emax: 100%
CAL-54
  IC50: > 3000 nM
OE33
  IC50: 3 nM
NCI-H2342
  IC50: > 3000 nM
EBC-1
  IC50: 8 nM
G-361
  IC50: > 3000 nM
NCI-H1573; NCI-H1573, NSCLC, MET copy number High, focal Yes, 72 hour viability, read-out: IC50
  IC50: > 3000 nM
NCI-H1573; NCI-H1573, high level focal MET amplification (log 2 ratio=2.9), KRAS G12A, read-out: viability assay IC50
  IC50: > 3000 nM
NCI-H820
  IC50: > 3000 nM
NCI-H1648
  IC50: > 3000 nM
C32
  IC50: > 3000 nM
HOP-92
  IC50: > 3000 nM
AU-565
  IC50: > 3000 nM
NUGC-4
  IC50: > 3000 nM
Alexander
  IC50: > 3000 nM
HCC1395
  IC50: > 3000 nM
Malme-3M
  IC50: > 3000 nM
Hs 746T
  IC50: 3 nM
SNU-5; Homo sapiens, SNU-5, 72 h
  IC50: 3 nM
SNU-5; SNU-5, 72 hour, 0-200% growth inhibition scale
  viability response type: evidence of cell death
SNU-620; Homo sapiens, SNU620, 72 h
  IC50: 14 nM
SNU-620; SNU-620, 72 hour, 0-200% growth inhibition scale
  viability response type: evidence of cell death
[1]; insensitive cell lines, read-out: IC50 values from the viability assay, cell lines binned as insensitive
  IC50: > 3000 nM
[1]; sensitive cell lines, read-out: IC50 values from the viability assay, cell lines binned as sensitive
  IC50: 2 to 17 nM
